# Laboratory results reported in US10335411B2, “Administration of ubiquitin-activating enzyme inhibitor and radiation” (Millennium Pharmaceuticals, Inc., priority 2014, dated 2019).
# Assays:
# LU-01-0030 xenograft [1] = experiment: second LU-01-0030 xenograft study, Compound 1 and radiation; type: in vivo, mice
# Text: In a second study with the LU-01-0030 xenograft model, 6-8 week old female BALB/c nude (Shanghai Sino-British SIPPR/BK Laboratory Animal Co., LTD.) mice were implanted subcutaneously with approximate 20-30 mm^3 LU-01-0030 tumor slices in the right flank. When the mean tumor volume reached approximately 182 mm^3, the animals were randomized into 6 treatment groups (n=8/group).
# Compound 1 [((1R,2R,3S,4R)-2,3-dihydroxy-4-(2-(3-(trifluoromethylthio) ? phenyl)pyrazolo[1,5-a]pyrimidin-7-ylamino)cyclopentyl)methyl sulfamate] is formulated in 10% HPbCD in sterile water and administered intravenously on days 0, 3, 7, 10, 14, 17 in the LU-01-0266 and HN-13-0007 models and on days 0, 3, 8, 11, 15, 18 in the ST-02-0004 model and in the second study with the LU-01-0030 model. Compound 1 formulation was prepared weekly and stored at room temperature in the dark.
# Beam-focused radiation was delivered using 4 Gray dosed on day 0 in the second study for the LU-01-0030 model.
# (§1) Tumors were measured twice weekly using vernier calipers. Tumor volumes were calculated using the following formula: (0.5×[length×width^2]). Treatment groups and dosing/treatment schedules are indicated in Tables 1a, 2a, 3a, 4a, and 5a below. Tumor size and body weight are measured approximately twice a week for the duration of the study. Mice are euthanized when their tumor volume reached approximately 1000 mm^3. Tumor growth continued to be monitored after the dosing period in some studies. In Tables 1a, 2a, 3a, 4a, and 5a tumor volumes are shown for HN-13-0014 (day 21), LU-01-0030 (day 21), the second LU-01-0030 study (day 20), LU-01-0266 (day 20), ST-02-0004 (day 21) and FIN-13-0007 (day 24), respectively. Average tumor volume is reported as a function of time for selected groups of selected studies.
# (§2) Measurements from day 0 to day 20, day 21 or day 24 are analyzed as specified in Tables below. All tumor volumes have a value of 1 added to them before log10 transformation. For each animal, the log tumor volume at day 0 is subtracted from the log tumor volume on the subsequent days. This difference vs. time is used to calculate an area under the curve (AUC) for each animal using the trapezoid rule. In instances when an animal in a treatment group is removed early from the study, the last observed tumor value is carried forward through all subsequent time points. The synergy score for the combination of agents A and B is defined as 100*(mean(AUCAB)−mean(AUCA)−mean(AUCB)+mean(AUCctl))/mean(AUCctl): where AUCAB, AUCA, AUCB, and AUCctl are the AUC values for animals in the combination group, the A group, the B group, and the control group, respectively. The standard error of the synergy score is computed based on the variation in the AUC values among the animals. […] If the P-value is above 0.05, then the combination is considered to be additive. If the P-value is below 0.05, and the synergy score is less than zero, then the combination is considered to be synergistic. If the P-value is below 0.05 and the synergy score was greater than zero, but the mean AUC for the combination was lower than the lowest mean AUC among the two single agent treatments, then the combination was sub-additive. If the P-value is below 0.05 and if the synergy score was greater than zero, and the mean AUC for the combination was greater than the mean AUC for at least one of the single agent treatments, then the combination was antagonistic.
# LU-01-0030 xenograft [2] = experiment: LU-01-0030 xenograft model, first study, Compound 1 and radiation; type: in vivo, mice
# Text: The LU-01-0030 xenograft model is a human primary non-small cell lung cancer model. In the first study with the LU-01-0030 model, approximately nine week old female BALB/c nude (Shanghai Sino-British SIPPR/BK Laboratory Animal Co., LTD.) mice were implanted subcutaneously with approximate 30 mm^3 LU-01-0030 tumor slices in the right flank. When the mean tumor volume reached approximately 159 mm^3, the animals were randomized into 10 treatment groups (n=8/group).
# Compound 1 [((1R,2R,3S,4R)-2,3-dihydroxy-4-(2-(3-(trifluoromethylthio) ? phenyl)pyrazolo[1,5-a]pyrimidin-7-ylamino)cyclopentyl)methyl sulfamate] is formulated in 10% HPbCD in sterile water and administered intravenously on a BIW (twice/week schedule; Monday and Thursday, i.e. days 0, 3, 7, 10, 14, 17) for 3 weeks in the HN-13-0014 and LU-01-0030 (first study) models. Compound 1 formulation was prepared weekly and stored at room temperature in the dark.
# Beam-focused radiation was delivered using a either 1 or 2 Gray dosed on days 0, 1, 7, and 8 or on days 0, 3, 7, and 10 in the HN-13-0014 and LU-01-0030 (first study) models. A Rad Source RS-2000 X-ray irradiator was used for therapy (Rad Source). Before radiation, animals were anesthetized by i.p. injection using 1.0% sodium pentobarbital at 80 mg/kg (Vendor: Sigma). Focused radiation was applied to each mouse at 1 Gy/min.
# as §1, §2
# [3] = 6.25 mg/kg Compound 1 + 4 Gy Radiation D0
# [4] = 15 mg/kg Compound 1 + 4 Gy Radiation D0
# [5] = 6.25 mg/kg Compound 1 + 2 Gy Radiation D0, 1, 7, 8
# [6] = 6.25 mg/kg Compound 1 + 2 Gy Radiation D0, 3, 7, 10
# [7] = 15 mg/kg Compound 1 + 2 Gy Radiation D0, 1, 7, 8
# [8] = 15 mg/kg Compound 1 + 2 Gy Radiation D0, 3, 7, 10
structure (smiles),measurement,setting,value
"NS(=O)(=O)OC[C@H]1C[C@@H](Nc2ccnc3cc(-c4cccc(SC(F)(F)F)c4)nn23)[C@H](O)[C@@H]1O [Compound 1, ((1R,2R,3S,4R)-2,3-dihydroxy-4-(2-(3-(trifluoromethylthio)phenyl)pyrazolo[1,5-a]pyrimidin-7-ylamino)cyclopentyl)methyl sulfamate]",Classification,LU-01-0030 xenograft [1]; [3],"Additive (If the P-value is above 0.05, then the combination is considered to be additive)"
same,Synergy score,LU-01-0030 xenograft [1]; [3],−74.5
same,Tumor Volume Day 20,"LU-01-0030 xenograft [1]; 6.25 mg/kg Compound 1 IV D 0, 3, 8, 11, 15, 18 + 4 Gy Radiation Beam D 0",83.8 mm^3
same,Tumor Volume Day 20,"LU-01-0030 xenograft [1]; 6.25 mg/kg Compound 1 IV D 0, 3, 8, 11, 15, 18, single agent",648.9 mm^3
same,Classification,LU-01-0030 xenograft [1]; [4],"Additive (If the P-value is above 0.05, then the combination is considered to be additive)"
same,Synergy score,LU-01-0030 xenograft [1]; [4],−10.3
same,Tumor Volume Day 20,"LU-01-0030 xenograft [1]; 15 mg/kg Compound 1 IV D 0, 3, 8, 11, 15, 18 + 4 Gy Radiation Beam D 0",2.04 mm^3
same,Tumor Volume Day 20,"LU-01-0030 xenograft [1]; 15 mg/kg Compound 1 IV D 0, 3, 8, 11, 15, 18, single agent",67.8 mm^3
same,combination effect,LU-01-0030 xenograft [1]; Compound 1 with 4 Gy radiation,additive combination effect
same,Classification,LU-01-0030 xenograft [2]; [5],"Additive (If the P-value is above 0.05, then the combination is considered to be additive)"
same,Synergy score,LU-01-0030 xenograft [2]; [5],5.4
same,Classification,LU-01-0030 xenograft [2]; [6],"Additive (If the P-value is above 0.05, then the combination is considered to be additive)"
same,Synergy score,LU-01-0030 xenograft [2]; [6],−22.2
same,Tumor Volume Day 21,"LU-01-0030 xenograft [2]; 6.25 mg/kg Compound 1 IV BIWx3 + 2 Gy Radiation Beam D 0, 1, 7, 8",101.9 mm^3
same,Tumor Volume Day 21,"LU-01-0030 xenograft [2]; 6.25 mg/kg Compound 1 IV BIWx3 + 2 Gy Radiation Beam D 0, 3, 7, 10",106.3 mm^3
same,Tumor Volume Day 21,"LU-01-0030 xenograft [2]; 6.25 mg/kg Compound 1 IV BIWx3, single agent",555.7 mm^3
same,anti-tumor activity compared to the vehicle control,LU-01-0030 xenograft [2]; 6.25 mg/kg Compound 1 as a single agent,no anti-tumor activity
same,Classification,LU-01-0030 xenograft [2]; [7],"Synergy (If the P-value is below 0.05, and the synergy score is less than zero, then the combination is considered to be synergistic)"
same,Synergy score,LU-01-0030 xenograft [2]; [7],−139.6
same,Classification,LU-01-0030 xenograft [2]; [8],"Synergy (If the P-value is below 0.05, and the synergy score is less than zero, then the combination is considered to be synergistic)"
same,Synergy score,LU-01-0030 xenograft [2]; [8],−165.9
same,Tumor Volume Day 21,"LU-01-0030 xenograft [2]; 15 mg/kg Compound 1 IV BIWx3 + 2 Gy Radiation Beam D 0, 1, 7, 8",2.3 mm^3
same,Tumor Volume Day 21,"LU-01-0030 xenograft [2]; 15 mg/kg Compound 1 IV BIWx3 + 2 Gy Radiation Beam D 0, 3, 7, 10",2.8 mm^3
same,Tumor Volume Day 21,"LU-01-0030 xenograft [2]; 15 mg/kg Compound 1 IV BIWx3, single agent",151.3 mm^3
same,"anti-tumor activity, single agent",LU-01-0030 xenograft [2]; Compound 1 at 15 mg/kg as single agent,tumor stasis
same,combination effect,LU-01-0030 xenograft [2]; Compound 1 with 2 Gy radiation,additive-to-synergistic combination effect
